According to patent US20070249591A1, “Biaryl Amino Acids and Their Use in Dna Binding Oligomers” (Spirogen Limited, priority 2004, published 2007):

System: MS2 DNA sequence
Assay: DNA footprinting study against the MS2 DNA sequence
Type: binding, bacteriophage
Details: cleavage pattern on electrophoresis gel
Method: In order to assess the binding of test compounds to DNA, a footprinting study against the MS2 DNA sequence was carried out. The sequence is as follows:
and is derived from a bacteriophage.
The footprinting technique in the context of DNA allows the determination of binding sites for drugs or biological macromolecules. It relies on the fact that DNA is cleaved relatively non-specifically by free radicals (e.g. hydroxyl radical footprinting) or enzymes (e.g. DNase I footprinting). Thus if DNA is 32p end labelled on one strand (so that it may be observed autoradiographically) and exposed to the cleavage agent for a certain time, then a laddering pattern may be seen when the resulting fragments are separated by gel electrophoresis (separation on the basis of size). If a compound which binds to DNA is added prior to the cleavage agent then this hinders access of the enzyme or radical to the DNA and blocks cleavage at the molecule binding site. Thus if the compound binds discretely then a specific cleavage block should be seen on the gel relative to the DNA not treated with compound, which is termed the ‘footprint’. (see FIG. 1)

`CCOC(=O)c1csc(-c2ccc(NC(=O)c3csc(-c4ccc(NC(=O)CCCN(C)C)cc4)n3)cc2)n1` [Compound 9, Ethyl 2-[4-({2-[4-(4-dimethylaminobutyrylamino)phenyl]thiazole-4-carbonyl}amino)phenyl]thiazole-4-carboxylate] was tested, and the coating event was “no clear coating event” and the specific footprinting activity was “no specific footprinting activity”.
